We go through 14 compounds from patent US20210053957A1, “HERBICIDAL COMPOUNDS” (SYNGENTA PARTICIPATIONS AG, priority 2018, published 2021).

What all share (test): Post-emergence efficacy, glasshouse spray test
What all share (format): in vivo

The test system of assay [1] is Amaranthus palmeri (AMAPA). The settings on record: Application Rate 500 g/Ha, evaluated after 13 days; for pest or weed control at 500 g/ha: Amaranthus palmeri, post-emergence, 312 h, read-out: Control of weed species after post-emergence application, AMAPA (100=total damage to plant; 0=no damage to plant). In short, it runs like this: (§1)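 Scoring 13 days after treatment ran 0 = no damage to 100 = plant killed. Spray solution: formula (I) dissolved in acetone with IF50 emulsifier/solvent mix, diluted with 0.25% or 1% sodium lauryl ether sulphate plus 1% ammonium sulphate, applied to 14-day-old glasshouse plants (24/16 °C, 14 h light, 65% humidity).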

Assay [2] has as its system Echinochloa crus-galli (ECHCG). The settings on record: Application Rate 500 g/Ha, evaluated after 13 days; for pest or weed control at 500 g/ha: Echinochloa crus-galli, post-emergence, 312 h, read-out: Control of weed species after post-emergence application, ECHCG (100=total damage to plant; 0=no damage to plant). In a few lines:
as §1

For assay [3], the system named is Digitaria sanguinalis (DIGSA). The settings on record: Application Rate 500 g/Ha, evaluated after 13 days; for pest or weed control at 500 g/ha: Digitaria sanguinalis, post-emergence, 312 h, read-out: Control of weed species after post-emergence application, DIGSA (100=total damage to plant; 0=no damage to plant). In short, it runs like this: as §1
The subject of assay [4] is Lolium perenne (LOLPE). The settings on record: Application Rate 500 g/Ha, evaluated after 13 days; for pest or weed control at 500 g/ha: Lolium perenne, post-emergence, 312 h, read-out: Control of weed species after post-emergence application, LOLPE (100=total damage to plant; 0=no damage to plant). In short, it runs like this: as §1
Assay [5] relates to Ipomoea hederacea (IPOHE). The settings on record: Application Rate 500 g/Ha, evaluated after 13 days; for pest or weed control at 500 g/ha: Ipomoea hederacea, post-emergence, 312 h, read-out: Control of weed species after post-emergence application, IPOHE (100=total damage to plant; 0=no damage to plant). In short, it runs like this:
as §1

For assay [6], the system named is Eleusine indica (ELEIN). The settings on record: Application Rate 500 g/Ha, evaluated after 13 days; for pest or weed control at 500 g/ha: Eleusine indica, post-emergence, 312 h, read-out: Control of weed species after post-emergence application, ELEIN (100=total damage to plant; 0=no damage to plant). In short, it runs like this:
as §1

For assay [7], the system named is Euphorbia heterophylla (EPHHL). The settings on record: Application Rate 500 g/Ha, evaluated after 13 days; for pest or weed control at 500 g/ha: Euphorbia heterophylla, post-emergence, 312 h, read-out: Control of weed species after post-emergence application, EPHHL (100=total damage to plant; 0=no damage to plant). In a few lines: as §1
The test system of assay [8] is Chenopodium album (CHEAL). The settings on record: Application Rate 500 g/Ha, evaluated after 13 days; for pest or weed control at 500 g/ha: Chenopodium album, post-emergence, 312 h, read-out: Control of weed species after post-emergence application, CHEAL (100=total damage to plant; 0=no damage to plant). In a few lines:
as §1

The test system of assay [9] is Setaia fabei (SETFA). The settings on record: Application Rate 500 g/Ha, evaluated after 13 days; for pest or weed control at 500 g/ha: Setaria faberi, post-emergence, 312 h, read-out: Control of weed species after post-emergence application, SETFA (100=total damage to plant; 0=no damage to plant). In a few lines:
as §1

Consider `CC(C[n+]1ccc(-c2ncco2)cn1)NS(=O)(=O)[O-]` (stereo not drawn) [Compound A89], for which the pest or weed control at 500 g/ha was found to be 100% in assay [1]; 60% in assay [2]; 90% in assay [3]; 60% in assay [4]; 30% in assay [5]; 70% in assay [6]. The pest or weed control at 500 g/ha in assay [7] is 100%; in assay [8] it was 90%; in assay [9], 60%.
On to `CC(C(=O)O)[n+]1ccc(-c2ncco2)cn1` (stereo not drawn) [Compound A90], for which the pest or weed control at 500 g/ha in assay [1] is 20%; in assay [2], 10%; in assay [3] it was 10%; in [4] it was 0%; in assay [5], 10%; in [6] it was 10%. The pest or weed control at 500 g/ha in assay [7] was 20%; in assay [8] it was 20%; in assay [9] it was 10%.
Turning to `COC(=O)c1cccc(C[n+]2ccc(-c3ncco3)cn2)c1` [Compound A92], the pest or weed control at 500 g/ha in assay [1] is 10%; in assay [2], 0%; in assay [3], 20%; in assay [4], 0%; in assay [5], 10%; in assay [6] it was 10%. Moreover, the figures for the pest or weed control at 500 g/ha in assay [7], in assay [8] and in assay [9] were 20%, 10% and 0%, respectively.
As for `C=C/N=C(\OC)c1cc[n+](C(C)C(=O)OC)nc1` (stereo not drawn) [Compound A93], the pest or weed control at 500 g/ha in [1] was determined as 0%; in assay [2] it was 30%; in assay [3] it was 50%; in assay [4] it was 10%; in assay [5], 20%; in assay [6], 30%. Besides, the pest or weed control at 500 g/ha was 10% in [7], 0% in assay [8] and 40% in assay [9].
With `COP(=O)(C[n+]1ccc(-c2ncco2)cn1)OC` [Compound A94], the “Control of weed species after post-emergence application, AMAPA (100=total damage to plant; 0=no damage to plant)” value in assay [1] came out at 90. Moreover, the “Control of weed species after post-emergence application, ECHCG (100=total damage to plant; 0=no damage to plant)” value in assay [2] worked out at 90. In addition, the “Control of weed species after post-emergence application, DIGSA (100=total damage to plant; 0=no damage to plant)” value in assay [3] worked out at 100. Further, the “Control of weed species after post-emergence application, LOLPE (100=total damage to plant; 0=no damage to plant)” value in assay [4] was determined as 40. In addition, in assay [5], the “Control of weed species after post-emergence application, IPOHE (100=total damage to plant; 0=no damage to plant)” value is 90. Also, the “Control of weed species after post-emergence application, ELEIN (100=total damage to plant; 0=no damage to plant)” value in assay [6] is reported as 100. Moreover, the “Control of weed species after post-emergence application, EPHHL (100=total damage to plant; 0=no damage to plant)” value in assay [7] came to 100. Besides, the “Control of weed species after post-emergence application, CHEAL (100=total damage to plant; 0=no damage to plant)” value in [8] is on record as 90. Moreover, the “Control of weed species after post-emergence application, SETFA (100=total damage to plant; 0=no damage to plant)” value in assay [9] was 90.
As for `COC(=O)c1ccccc1C[n+]1ccc(-c2ncco2)cn1` [Compound A95], the pest or weed control at 500 g/ha in [1] was found to be 10%; in [2], 10%; in [3], 30%; in [4], 0%; in [5] it was 10%; in [6], 10%. Moreover, the results for the pest or weed control at 500 g/ha in [7], in [8] and in assay [9] were 30%, 0% and 20%, respectively.
`O=C(O)CC[n+]1ccc(-c2ccno2)cn1` [Compound A96]: the pest or weed control at 500 g/ha was found to be 100% in [1]; 30% in [2]; 40% in assay [3]; 70% in assay [4]; 80% in assay [5]; 80% in assay [6]. Besides, the pest or weed control at 500 g/ha in assay [7] is 100%; in assay [8], 90%; in assay [9], 80%.
`O=C(O)CC[n+]1ccc(-c2ccsn2)cn1` [Compound A97]: the pest or weed control at 500 g/ha worked out at 100% in assay [1]; 60% in assay [2]; 50% in [3]; 30% in [4]; 20% in assay [5]; 70% in assay [6]. In addition, the pest or weed control at 500 g/ha in assay [7] is 50%; in assay [8], 80%; in assay [9] it was 40%.
Regarding `Cc1nnc(-c2cc[n+](CCC(=O)O)nc2)s1` [Compound A98], the pest or weed control at 500 g/ha was found to be 100% in assay [1]; 70% in assay [2]; 90% in [3]; 80% in assay [4]; 40% in assay [5]; 80% in assay [6]. Further, the pest or weed control at 500 g/ha in assay [7] stood at 90%; in assay [8] it was 90%; in assay [9], 100%.
On to `O=C(O)CC[n+]1ccc(-c2cscn2)cn1` [Compound A100], for which the pest or weed control at 500 g/ha came to 0% in [1]; 30% in assay [2]; 40% in assay [3]; 10% in assay [4]; 20% in assay [5]; 30% in [6]. Moreover, the pest or weed control at 500 g/ha in assay [7] turned out to be 30%; in assay [8], 0%; in assay [9] it was 30%.
For the compound `O=S(=O)([O-])N1CCCC1C[n+]1ccc(-c2ncco2)cn1` (stereo not drawn) [Compound A101], the pest or weed control at 500 g/ha in assay [1] came to 70%; in [2], 40%; in assay [3], 70%; in [4], 20%; in assay [5], 40%; in [6], 30%. For the same compound, the values for the pest or weed control at 500 g/ha in assay [7], in [8] and in [9] were 70%, 60% and 60%, respectively.
For `O=P(O)(O)C[n+]1ccc(-c2ncco2)cn1` [Compound A102], the “Control of weed species after post-emergence application, AMAPA (100=total damage to plant; 0=no damage to plant)” value in [1] worked out at 100. Also, the “Control of weed species after post-emergence application, ECHCG (100=total damage to plant; 0=no damage to plant)” value in assay [2] is given as 70. Further, the “Control of weed species after post-emergence application, DIGSA (100=total damage to plant; 0=no damage to plant)” value in assay [3] was found to be 60. Moreover, the “Control of weed species after post-emergence application, LOLPE (100=total damage to plant; 0=no damage to plant)” value in assay [4] is recorded as 10. For the same compound, the “Control of weed species after post-emergence application, IPOHE (100=total damage to plant; 0=no damage to plant)” value in assay [5] is recorded as 60. The “Control of weed species after post-emergence application, ELEIN (100=total damage to plant; 0=no damage to plant)” value in assay [6] turned out to be 30. Also, the “Control of weed species after post-emergence application, EPHHL (100=total damage to plant; 0=no damage to plant)” value in [7] is given as 90. Also, in assay [8], the “Control of weed species after post-emergence application, CHEAL (100=total damage to plant; 0=no damage to plant)” value turned out to be 90. Besides, the “Control of weed species after post-emergence application, SETFA (100=total damage to plant; 0=no damage to plant)” value in [9] is recorded as 60.
With `COP(=O)([O-])C[n+]1ccc(-c2ncco2)cn1` [Compound A103], the pest or weed control at 500 g/ha in assay [1] was found to be 70%; in assay [2], 70%; in [3], 90%; in [4] it was 30%; in [5] it was 40%; in [6], 60%. Further, the pest or weed control at 500 g/ha in [7] is 70%; in assay [8], 40%; in assay [9], 80%.
Consider `O=C(O)c1cccc(C[n+]2ccc(-c3ncco3)cn2)c1` [Compound A104], for which the pest or weed control at 500 g/ha came out at 40% in assay [1]; 50% in assay [2]; 50% in assay [3]; 10% in assay [4]; 10% in assay [5]; 20% in [6]. The pest or weed control at 500 g/ha was determined as 30% in assay [7], 20% in assay [8] and 60% in [9].
